Source: PMC7824769, “Identification of Small Molecules Blocking the Pseudomonas aeruginosa Type III Secretion System Protein PcrV” (Biomolecules, 2021)
Several values for one entry are separate records, joined by “and”; a condition that tells them apart may be missing. Equal entries are not always repeated.

Key:
[1] = target: PcrV (Pseudomonas aeruginosa, UniProt G3XD49); experiment: SPR dose-response binding to immobilized PcrV (equilibrium analysis); details: for Binding to PcrV in SPR (in words): dose-response SPR
Protocol: The SPR screening was performed using the ProteOn^TM XPR36 Protein Interaction Array System (Bio-Rad Laboratories Inc., Hercules, CA, USA) with ProteOn GLH sensor chip (Bio-Rad Laboratories Inc., Hercules, CA, USA), and the results were analyzed with the ProteOn Manager software^TM (Bio-Rad Laboratories Inc., Hercules, CA, USA), Excel 2016 (Microsoft Office), and GraphPad Prism 7.04. All SPR experiments were performed at 25 °C. The multichannel module of the ProteOn system was in the vertical position during protein immobilization. The proteins were attached to the surface of a GLH sensor chip via amine coupling chemistry. A buffer scouting was performed to elucidate the optimal binding conditions of PcrV to the GLH sensor chip. First, channels 1–4 on the chip surface were activated using a 1:1 mixture of 40 mM 1-ethyl-3-(3-dimethylaminopropyl)carbodiimide hydrochloride (EDAC) (Bio-Rad Laboratories Inc., Hercules, CA, USA) and 10 mM N-hydroxysulfosuccinimide (sulfo-NHS, Bio-Rad Laboratories Inc., Hercules, CA, USA) for 300 s at 30 µL/min. Next, the proteins PcrV (33,398.6 Da, 6.37 mg/mL) was diluted in 10 mM NaOAc (pH 4, 4.5, and 5) to 0.05 mg/mL. PcrV was immobilized in channel 1–3 for 540 s at 30 µL/min. Channel 4 was flushed with 10 mM NaOAc (pH 5) for 540 s at 30 µL/min. As deactivating agent, a 1:1 mixture of 1 M ethanolamine and milli-Q filtered water was used. The deactivating solution was injected over all four channels for 300 s at 30 µL/min. Phosphate buffered saline with Tween (PBST; 10 mM phosphate buffer pH 7.4, 140 mM NaCl, 2.7 mM KCl, and 0.05% Tween 20) was used as the running buffer. The final amount of immobilized protein was measured in resonance units (RU) relative to the signal of the baseline prior activation. […] Immobilization of PcrV diluted in sodium acetate of pH 4.5 in one channel and of pH 5 in one channel were used in the beginning of the screening procedure (for plate 1–26). Since no difference was found between the two pH values, the PcrV protein was diluted in sodium acetate at pH 5 only (in two channels) from plate 27 and the rest of the screen. The immobilization procedure for the screening was performed as described above with the addition that the control protein carbonic anhydrase isoenzyme II from bovine erythrocytes (CAII, Sigma-Aldrich, article number 2522) was immobilized in one channel that was activated and deactivated as described above. CAII (1 mg/mL in PBS) was deactivated when diluted in 10 mM sodium acetate (pH 4) to 0.05 mg/mL. Immobilization level of the deactivated CAII was 18,000 RU. Deactivated CAII was used as a control protein according to the recommendations by the ProteOn manufacturer (Bio-Rad Laboratories Inc., Hercules, CA, USA). As running buffer, we employed PBS (pH 7.4, 0.05% Tween 20).
First, the PcrV protein was immobilized in two channels as described above while keeping a blank channel which was activated and deactivated as described above. The multichannel module of the ProteOn system was in horizontal position during the small molecule interaction studies. They were serially diluted to (400,) 200, 100, 50, 25, 12.5, 6.25, and (3.125); or 100, 50, 25, and 12.5 µM; or 100, 66.7, 44.4, 29.6, 19.7, and 13.2 µM in PBST (0.05% Tween 20) with a total concentration of 5% DMSO in 96-well plates. The running buffer was PBST (0.05% Tween 20) containing 5% DMSO. The analytes were injected at a flowrate of 100 µL/min, contact time was 60 s, and dissociation time was 60–120 s. Solvent correction was performed continuously during the experiments to account for bulk response of DMSO. The data was then baseline-aligned, processed by channel referencing with the blank channel, and solvent-corrected. The equilibrium dissociation constant (KD) values were determined from equilibrium analysis in the ProteOn Manager software^TM. Solubility problems frequently hampered KD determination since the small molecules could not always be dissolved in concentrations high enough to reach a plateau. […]

[2] = tested on: J774 cells infected with P. aeruginosa strain PAK; experiment: cells; assay type: cell-based, Pseudomonas aeruginosa; details: Pseudomonas aeruginosa, uninfected control = 100%, infected control = 0%; for viability at 25 µM: J774, compound 25 µM, read-out: Viability Assay (% of Uninfected Control) 25 µM; for viability at 50 µM: J774, compound 50 µM, read-out: Viability Assay (% of Uninfected Control) 50 µM; for viability at 100 µM: J774, compound 100 µM, read-out: Viability Assay (% of Uninfected Control) 100 µM; for viability at 200 µM: J774, compound 200 µM
Protocol: (§1) The cell viability assay was performed essentially as described before. J774 cells were seeded in 96-well micro-titer plates (Nunc), 100 µL/well, to a final number of 50,000 cells/well in Dulbecco’s modified Eagle’s medium (DMEM) with glutamax (Merck) supplemented with 10% fetal calf serum (FCS) and 3 µg/mL gentamicin and incubated for 16-18 h. Overnight cultures of the P. aeruginosa strains PAK and PAKpcrV [10] were grown in Luria Broth (LB) on a rotary shaker at 220 rpm at 37 °C. Prior to infection, the bacteria were diluted 1:10 in DMEM + glutamax and incubated for 1 h at 37 °C (shaking). The J774 cells were washed once with PBS, then 30 µL of DMEM with glutamax and 10% FCS supplemented with the potential binders at concentrations of 50, 100, 200, and 400 µM were added to the wells in triplicates. The infection was initiated by adding 30 µL of the diluted bacterial solutions (where the OD600 had been diluted to 0.0008) to each well to initiate infection. This infection results in a final bacterial concentration of OD600 = 0.0004 and a multiplicities of infection (MOI) of approximately 8, with final concentrations of the compounds at 25, 50, 100, and 200 µM in 60 µL of DMEM + glutamax and 5% FCS. In the primary screening, the compounds were run at one concentration (100 µM) in duplicates. As an infection control, the wild-type strain PAK with 1% DMSO was added, and as a positive control, PAKpcrV with 1% DMSO was added into four wells each. After 3 h and 30 min, 10 µL of UptiBlue Viable Cell Counting Kit (Interchime, France) was added to all wells. The infection was followed under the light microscope and the fluorescence (excitation 535 nm and emission 595 nm) was measured at 4, 5, and 6 h in a microplate reader (Synergy™ H4, Biotek). The results were calculated as percentage of living cells compared to uninfected control, where the uninfected control was set to 100% living cells and the infected control was set to 0% living cells. As a control, compounds were added to uninfected cells in a parallel experiment and viability was calculated as above to screen for cell toxicity. A compound was considered toxic if the viability was <80% of the uninfected control after 6 h of incubation and if a visual change of cell morphology was observed by microscopy. Z’ was calculated for each plate to ensure good quality throughout the screening. Only results from plates with a Z’ > 0.4 were counted. Standard deviation was calculated with Gaussian approximation when appropriate and shown as error bars in Figure 3C and Figure 4A.
The T3SS is important for P. aeruginosa infection of eukaryotic cells, and a T3SS activator mutant or a mutant lacking the T3SS tip protein PcrV are not able to infect eukaryotic cells. The macrophage cell line, J774, was infected with the wild-type P. aeruginosa strain PAK, and the potential PcrV binders were added to the wells at a final concentration of 100 µM to screen for inhibition of infection. The T3SS-mediated cytotoxic effect on the eukaryotic cells was measured by using a viability staining method (Uptiblue, Interchim), and the results were measured after 4, 5, and 6 h of infection. The pcrV-mutant (PAKpcrV), which is not able to infect macrophages due to deletion of the PcrV protein, was used as a control.

[3] = tested on: uninfected J774 cells; experiment: Cell toxicity control: compounds added to uninfected J774 cells; assay type: cell-based; details: 6 h incubation; for Toxicity towards eukaryotic cells, 200 µM: compound 200 µM; for Toxicity towards eukaryotic cells, 25 µM: compound 25 µM; for Toxicity towards eukaryotic cells, 50 µM: compound 50 µM; for Toxicity towards eukaryotic cells, 100 µM: compound 100 µM
Protocol: as §1

[4] = as above; assay type: cell-based; details: mouse, uninfected J774 macrophage cells; read-out: Eukaryotic cell toxicity (viability compared to DMSO control)
Protocol: as §1

[5] = KD ± standard error of KD (Table S1), single experiment, standard error from ProteOn Manager software
[6] = SPR KD, equilibrium analysis, mean ± SD of three or more independent experiments, individual values where n < 3, 25 °C, PBST 5% DMSO

PcrV, sequence (G3XD49 entry or part of it): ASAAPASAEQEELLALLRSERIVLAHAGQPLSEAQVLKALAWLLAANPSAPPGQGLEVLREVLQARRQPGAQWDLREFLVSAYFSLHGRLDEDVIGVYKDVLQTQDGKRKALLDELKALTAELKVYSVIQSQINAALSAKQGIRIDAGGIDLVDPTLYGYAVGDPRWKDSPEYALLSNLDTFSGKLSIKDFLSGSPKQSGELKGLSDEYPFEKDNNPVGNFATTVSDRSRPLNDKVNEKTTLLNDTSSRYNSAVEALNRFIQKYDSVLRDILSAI

Structure (SMILES) | Kd [1, 5] | Kd [1, 6] | viability at 25 µM [2] | viability at 50 µM [2] | viability at 100 µM [2] | viability at 200 µM [2] | Toxicity towards eukaryotic cells, 200 µM [3] | Toxicity towards eukaryotic cells, 25 µM [3] | Toxicity towards eukaryotic cells, 50 µM [3] | Toxicity towards eukaryotic cells, 100 µM [3] | Binding to PcrV in SPR (in words) [1] | viability at 6 h [4]
Cc1c(Br)ccc(OCCCC(=O)N2CCC(C(=O)O)CC2)c1C [Compound 23] | 94.1 ± 31 µM | 94 µM and 103 µM | 17% | 18% | 20% | 9% | b (The compound is toxic^e towards eukaryotic cells, which might affect the results negatively) | – | – | – | – | –
Cc1c(Br)ccc(OCCCc2ccccc2C(=O)O)c1C [Compound 30] | 149 ± 27 µM | 113 ± 31 µM | 16% | 25% | 21% | -16% | b (The compound is toxic^e towards eukaryotic cells, which might affect the results negatively) | – | – | – | – | –
Cc1c(Br)ccc(OCCCCO)c1C [Compound 28] | – | 127 µM and 351 µM | – | – | – | – | Toxic ^e (<80% viability compared to the DMSO control) | Toxic ^e (<80% viability compared to the DMSO control) | Toxic ^e (<80% viability compared to the DMSO control) | Toxic ^e (<80% viability compared to the DMSO control) | – | –
O=C(O)CCCOc1ccc(Cl)cc1Cl [Compound 1] | 124 ± 53 µM | < 127 µM and 95 µM | 14% | 12% | 21% | 16% | b (The compound is toxic^e towards eukaryotic cells, which might affect the results negatively) | – | – | – | – | –
O=C(O)CCCOc1cc(Cl)ccc1Oc1ccc(Cl)cc1Cl [Compound 17] | – | 536 µM | 10% | 3% | 7% | -2% | b (The compound is toxic^e towards eukaryotic cells, which might affect the results negatively) | – | – | – | – | –
CNC(=O)CCCOc1ccc(Br)c(C)c1C [Compound 19] | 177 ± 31.6 µM | 121 ± 45 µM | – | – | – | – | Toxic ^e (<80% viability compared to the DMSO control) | Toxic ^e (<80% viability compared to the DMSO control) | Toxic ^e (<80% viability compared to the DMSO control) | Toxic ^e (<80% viability compared to the DMSO control) | improved or similar binding affinity | < 80%
Cc1c(Br)ccc(OCCCC(N)=O)c1C [Compound 18] | 32.9 ± 5 µM | 42 ± 12 µM | – | – | – | – | Toxic ^e (<80% viability compared to the DMSO control) | Toxic ^e (<80% viability compared to the DMSO control) | Toxic ^e (<80% viability compared to the DMSO control) | Toxic ^e (<80% viability compared to the DMSO control) | improved or similar binding affinity | < 80%
Cc1c(Br)ccc(OCCCC(=O)NS(=O)(=O)c2ccccc2)c1C [Compound 27] | 116 ± 18 µM | 118 ± 62 µM | 13% | 15% | 25% | -6% | b (The compound is toxic^e towards eukaryotic cells, which might affect the results negatively) | – | – | – | – | –
